Assays:
[1] = system: immature male Wistar rats; assay: In vivo androgenicity, seminal vesicle wet weight after oral dosing for 5 days; design: species or system rat; details: for Increase seminal vesicle wet weight: once daily for 5 days, relative to vehicle treated rats; for Relative potency: DHT as reference (100%)
Description: Groups of 5 immature male Wistar rats, weighing 50±2 grams, received either vehicle treatment or were administered 30 or 10 mg/kg/day test substance by oral gavage in a dosing volume of 10 ml per kg for 5 consecutive days. During the experiment, animals were housed in cages of 45×23×15 cm and maintained in a controlled temperature of 22-24° C. and humidity (60-80%) environment with 12 hours light/dark cycles. Food (lab diet, rodent diet, PMI nutrition international) and water intake was ad libitum.
The animals were sacrificed 24 hours after receiving the final dose and the wet weight of the seminal vesicle of each animal was recorded and average wet weight per group was calculated. Increase in average seminal vesicle wet weight relative to the average seminal vesicle wet weight of vehicle treated rats was considered indicative for in vivo androgenicity.

Recombinant rat AR = target: T1, Recombinant rat AR (Rattus norvegicus, UniProt P15207); assay: Competitive steroid binding assay to the androgen receptor with [3H]mibolerone; details: for AR-binding Relative affinity: Ki value of DHT set at 100%; for Affinity to AR as compared to DHT and testosterone: orders of magnitude
T1 construct: made in house; host or cells: E. coli
T1 sequence (P15207 1-902): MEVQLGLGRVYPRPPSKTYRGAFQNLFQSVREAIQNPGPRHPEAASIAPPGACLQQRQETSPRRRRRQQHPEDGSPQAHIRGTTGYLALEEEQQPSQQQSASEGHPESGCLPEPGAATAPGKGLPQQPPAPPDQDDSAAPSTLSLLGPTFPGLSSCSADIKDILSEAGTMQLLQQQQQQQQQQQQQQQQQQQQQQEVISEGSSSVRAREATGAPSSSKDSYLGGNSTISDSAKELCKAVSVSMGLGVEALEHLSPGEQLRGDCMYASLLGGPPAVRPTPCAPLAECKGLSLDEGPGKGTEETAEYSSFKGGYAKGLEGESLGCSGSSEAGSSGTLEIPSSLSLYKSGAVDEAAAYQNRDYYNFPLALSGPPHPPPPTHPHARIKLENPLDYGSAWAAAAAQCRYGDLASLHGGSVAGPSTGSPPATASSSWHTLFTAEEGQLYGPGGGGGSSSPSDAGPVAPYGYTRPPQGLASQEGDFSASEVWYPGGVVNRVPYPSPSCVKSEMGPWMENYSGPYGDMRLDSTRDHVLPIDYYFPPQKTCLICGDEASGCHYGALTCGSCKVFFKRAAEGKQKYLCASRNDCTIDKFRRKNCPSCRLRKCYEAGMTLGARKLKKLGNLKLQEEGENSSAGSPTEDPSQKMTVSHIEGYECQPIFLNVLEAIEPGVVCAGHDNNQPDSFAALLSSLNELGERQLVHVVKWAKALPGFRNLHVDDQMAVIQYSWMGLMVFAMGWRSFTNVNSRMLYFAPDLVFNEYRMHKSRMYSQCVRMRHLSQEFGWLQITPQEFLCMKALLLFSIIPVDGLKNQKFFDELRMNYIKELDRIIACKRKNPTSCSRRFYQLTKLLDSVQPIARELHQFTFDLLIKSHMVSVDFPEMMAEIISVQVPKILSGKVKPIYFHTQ
Description: Recombinant rat AR was expressed and purified from E. Coli. […] After incubation for 4 h at 4° C., the unbound ligands were removed and the amounts of [^3H]mibolerone bound to the AR was measured. The average amounts of [^3H]mibolerone bound to AR at each concentration of competitor were used to make inhibition curves. IC50 values were subsequently determined by a non-linear, least squares regression analysis.

[2] = target: T2, human sex Hormone Binding Globulin (SHBG) (Homo sapiens, UniProt P04278); assay: Competitive steroid-binding assay, displacement of [3H]DHT from human SHBG; details: [3H]DHT as labeled ligand, compared to DHT, T or DHEA (FIG. 1)
T2 sequence (P04278 30-402): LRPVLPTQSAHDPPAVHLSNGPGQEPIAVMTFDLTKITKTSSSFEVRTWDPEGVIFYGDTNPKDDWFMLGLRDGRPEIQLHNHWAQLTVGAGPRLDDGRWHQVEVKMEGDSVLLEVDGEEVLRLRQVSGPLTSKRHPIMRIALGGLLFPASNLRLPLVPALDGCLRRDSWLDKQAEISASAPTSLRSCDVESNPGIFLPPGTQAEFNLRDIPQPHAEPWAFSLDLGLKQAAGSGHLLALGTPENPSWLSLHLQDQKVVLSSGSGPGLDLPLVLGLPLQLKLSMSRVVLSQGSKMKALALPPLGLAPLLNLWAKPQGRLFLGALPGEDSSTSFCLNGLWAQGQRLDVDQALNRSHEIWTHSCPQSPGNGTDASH
Description: Human SHBG was treated for 30 min at room temperature with a dextran-coated charcoal (DCC) suspension in phosphate buffered saline (PBS) to remove any steroid ligand. After centrifugation (2,000×g for 10 min) to sediment the DCC, the supernatant containing the human SHBG was diluted in PBS to a concentration of 1 nM based on its steroid binding capacity.
Duplicate aliquots (100 μl) of this human SHBG solution were then incubated with an equal volume of [^3H]DHT at 10 nM, together with 100 μl of PBS alone or the same amount of PBS containing increasing concentrations of unlabeled steroid ligands as competitors in polystyrene test tubes. After incubation for 1 h at room temperature the reaction mixtures were placed in an ice bath for a further 15 min. […] The unbound ligands adsorbed to DCC were then removed by centrifugation (2,000×g for 15 min at 4° C.), and the amounts of [^3H]labeled DHT bound to SHBG were counted in 2 ml ACS scintillation cocktail using in liquid scintillation spectrophotometer. The average amounts of [^3H] labeled DHT bound to SHBG at each concentration of competitor (B) were expressed as a percentage of the average amounts of [^3H]labeled DHT bound to SHBG in the absence of competitor (T), and were plotted against the concentration of competitor in each assay tube.

With C[C@]12CCC(=O)C[C@@H]1CC[C@@H]1[C@@H]2CC[C@]2(C)[C@@H](O)CC[C@@H]12 [5α-dihydroxytestosterone, DHT, reference compound] the “Increase seminal vesicle wet weight” value ([1]; oral dose 10 mg/kg/day) was 5% and the “Increase seminal vesicle wet weight” value ([1]; oral dose 30 mg/kg/day) was 27%.

In the case of C[C@]12CC[C@H]3[C@@H](CCC4=CC(=O)CC[C@@]43C)[C@@H]1[C@@H](O)C[C@@H]2O [15α-hydroxytestosterone, 15α,17β-dihydroxy-4-androsten-3-one], the Ki (Recombinant rat AR) is reported as 1820 nM, the “AR-binding Relative affinity” value (Recombinant rat AR) is reported as 0.05% and the “Affinity to AR as compared to DHT and testosterone” value (Recombinant rat AR) is reported as 2 to 3 orders of magnitude less affinity. For the same molecule, the Relative potency ([1]; oral dose 10 mg/kg/day) was 560%, the “Increase seminal vesicle wet weight” value ([1]; oral dose 10 mg/kg/day) was 28% and the Relative potency ([1]; oral dose 30 mg/kg/day) was 148%. For the same molecule, the “Increase seminal vesicle wet weight” value ([1]; oral dose 30 mg/kg/day) was 40% and the “Binding to human SHBG” value [2] was “do not bind human SHBG”.

C[C@]12CC[C@H]3[C@@H](CCC4=CC(=O)CC[C@@]43C)[C@@H]1[C@H](O)C[C@@H]2O [15β-hydroxytestosterone, 15β,17β-dihydroxy-4-androsten-3-one] was tested, and the Ki (Recombinant rat AR) was 557 nM, the “AR-binding Relative affinity” value (Recombinant rat AR) was 0.18% and the “Affinity to AR as compared to DHT and testosterone” value (Recombinant rat AR) was 2 to 3 orders of magnitude less affinity. For the same molecule, the Relative potency ([1]; oral dose 10 mg/kg/day) was 400%, the “Increase seminal vesicle wet weight” value ([1]; oral dose 10 mg/kg/day) was 20% and the Relative potency ([1]; oral dose 30 mg/kg/day) was 130%. For the same molecule, the “Increase seminal vesicle wet weight” value ([1]; oral dose 30 mg/kg/day) was 35% and the “Binding to human SHBG” value [2] was “do not bind human SHBG”.

C[C@]12CC[C@H]3[C@@H](CCC4=CC(=O)CC[C@@]43C)[C@@H]1C[C@H](O)[C@@H]2O [16β-hydroxytestosterone, 16β,17β-dihydroxy-4-androsten-3-one] was tested, and the Ki (Recombinant rat AR) was 814 nM, the “AR-binding Relative affinity” value (Recombinant rat AR) was 0.12% and the “Affinity to AR as compared to DHT and testosterone” value (Recombinant rat AR) was 2 to 3 orders of magnitude less affinity.

In the case of C[C@]12CC[C@H]3[C@@H](CCC4=CC(=O)CC[C@@]43C)[C@@H]1CC[C@@H]2O [Testosterone, 17β-hydroxy-4-androsten-3-one, reference compound], the “Increase seminal vesicle wet weight” value ([1]; oral dose 10 mg/kg/day) is reported as 41% and the “Increase seminal vesicle wet weight” value ([1]; oral dose 30 mg/kg/day) is reported as 47%.
